Among the data in patent publication US20190055235A1, “SUBSTITUTED BICYCLIC COMPOUNDS AS BROMODOMAIN INHIBITORS” (ZENITH EPIGENETICS LTD., priority 2014, published 2019) are IC50 values, retold here.

Test [1] relates to hIL-6 mRNA. The experiment in a line: Inhibition of hIL-6 mRNA transcription in PMA-differentiated, LPS-stimulated U937 cells. The following applies: Homo sapiens, U-937; U937 cells differentiated with PMA, 1 h pretreatment, 1 ug/mL LPS, 3 h, real-time PCR; read-out: IL-6 activity. In kind it is cell-based. On the procedure: Human leukemic monocyte lymphoma U937 cells (CRL-1593.2) were plated at a density of 3.2×10^4 cells per well in a 96-well plate in 100 μL RPMI-1640 containing 10% FBS and penicillin/streptomycin, and were differentiated into macrophages for 3 days in 60 ng/mL PMA ([…]) at 37° C. in 5% CO2 prior to the addition of compound. The cells were pretreated for 1 h with increasing concentrations of test compound in 0.1% DMSO prior to stimulation with 1 ug/mL lipopolysaccharide from Escherichia coli. Triplicate wells were used for each concentration. The cells were incubated at 37′C, 5% CO2 for 3 h before the cells were harvested. At time of harvest, media was removed and cells were rinsed in 200 μL PBS. Cells were harvested using the mRNA Catcher PLUS kit according to manufacturer's instructions. The eluted mRNA was then used in a one-step quantitative real-time PCR reaction using components of the RNA UltraSense™ One-Step Kit (Life Technologies) together with Applied Biosystems TaqMan® primer-probes for hIL-6 and Cyclophilin. Real-time PCR plates were run on a ViiA™7 real time PCR machine (Applied Biosystems). The data was analyzed, and the Ct values for hIL-6 were normalized to an internal control prior to determining the fold expression of each sample, relative to the control.
Background: In qPCR the cycle at which signal appears reflects the starting amount.

Test [2] has as its system hIL-17 mRNA. The experiment in a line: Inhibition of hIL-17 mRNA transcription in OKT3-stimulated human peripheral blood mononuclear cells. It counts as cell-based. The conditions noted are these: human PBMC, 1 h pretreatment, OKT3 antibody, 6 h, real-time PCR; read-out: IL-17 activity. The method, then: Human peripheral blood mononuclear cells were plated (2.0×10^5 cells per well) in a 96-well plate in 45 μL OpTimizer T Cell expansion media (Life Technologies) containing 20 ng/ml IL-2 and penicillin/streptomycin. The cells were treated with increasing concentrations of the test compound or DMSO (0.1%), and were incubated at 37° C., 5% CO2 for 1 h before addition of 10× stock OKT3 antibody at 10 ug/ml in media. Triplicate wells were used for each concentration. Cells were incubated at 37° C., 5% CO2 for 6 h before the cells were harvested. At time of harvest, cells were pelleted by centrifugation at 800 rpm for 5 min. Cells were harvested using the mRNA Catcher PLUS kit according to manufacturer's instructions. The eluted mRNA was then used in a one-step quantitative real-time PCR reaction, using components of the RNA UltraSense™ One-Step Kit (Life Technologies) together with Applied Biosystems TaqMan® primer-probes for hIL-17 and Cyclophilin. Real-time PCR plates were run on a ViiA™7 real time PCR machine (Applied Biosystems). The data was analyzed, and the Ct values for hIL-17 were normalized to an internal control prior to determining the fold induction of each unknown sample, relative to the control.

Test [3] concerns the target T1, Brd4 bromodomain 1 (BRD4(1)) (Homo sapiens, UniProt O60885).
T1 construct: N-terminally His-tagged bromodomains (BRD4(1) at 20 nM and BRD4(2) at 100 nM); made in house; host or cells: E. coli BL21(DE3)
The experiment in a line: Inhibition of tetra-acetylated histone H4 binding to Brd4 bromodomain 1 (AlphaScreen). The conditions noted are these: His-tagged BRD4(1) at 20 nM, biotinylated tetra-acetylated histone H4 peptide, 30 min incubation. The method, then:
Proteins were cloned and overexpressed with a N-terminal 6×His tag, then purified by nickel affinity followed by size exclusion chromatography. Briefly, E. coli BL21(DE3) cells were transformed with a recombinant expression vector encoding N-terminally Nickel affinity tagged bromodomains from Brd2, Brd3, Brd4. Cell cultures were incubated at 37° C. with shaking to the appropriate density and induced overnight with IPTG. The supernatant of lysed cells was loaded onto Ni-IDA column for purification. Eluted protein was pooled, concentrated and further purified by size exclusion chromatography. Fractions representing monomeric protein were pooled, concentrated, aliquoted, and frozen at −80° C. for use in subsequent experiments.
Binding of tetra-acetylated histone H4 peptide (Millipore) and BET bromodomains was confirmed by Amplified Luminescent Proximity Homogenous Assay (AlphaScreen). N-terminally His-tagged bromodomains (BRD4(1) at 20 nM and BRD4(2) at 100 nM) and biotinylated tetra-acetylated histone H4 (10-25 nM) were incubated in the presence of nickel chelate acceptor beads and streptavidin donor beads (PerkinAlmer, 6760000K) added to a final concentration of 2 μg/ml under green light in a white 96 well microtiter plate (Greiner). For inhibition assays, serially diluted compounds were added to the reaction mixtures in a 0.1% final concentrations of DMSO. Final buffer concentrations were 50 mM HEPES, 100 mM NaCl and 0.1% BSA buffer, pH 7.4 and optimized to 30 min incubation time. Assay plates were read at 570 nm on a Synergy H4 Plate Reader (Biotek). IC50 values were determined from a dose response curve.
For orientation: In Alpha technology, singlet oxygen from a donor bead excites a nearby acceptor bead.

Where only a bound is given, the exact number is not on record here.

On to `CSc1ccc(Cn2c(C)nc3ncc(-c4c(C)noc4C)cc32)cc1` [Example 1, 3,5-Dimethyl-4-(2-methyl-1-(4-(methylthio)benzyl)-1H-imidazo[4,5-b]pyridin-6-yl)isoxazole], for which the IC50 in test [1] is 0.3 to 3 µM; in test [2] it was 0.3 to 3 µM; in test [3] it was not above 0.3 µM.
For `COC(=O)c1cccc(Cn2c(C)nc3ncc(-c4c(C)noc4C)cc32)c1` [Example 2, Methyl 3-((6-(3,5-dimethylisoxazol-4-yl)-2-methyl-1H-imidazo[4,5-b]pyridin-1-yl)methyl)benzoate], the values for the IC50 in test [1], in test [2] and in test [3] were 0.3 to 3 µM, 0.3 to 3 µM and not above 0.3 µM, respectively.
On to `COC(=O)c1ccc(Cn2c(C)nc3ncc(-c4c(C)noc4C)cc32)cc1` [Example 3, Methyl 4-((6-(3,5-dimethylisoxazol-4-yl)-2-methyl-1H-imidazo[4,5-b]pyridin-1-yl)methyl)benzoate], for which the figures for the IC50 in test [1] and in test [3] were 0.3 to 3 µM and not above 0.3 µM, respectively.
As to `CSc1cccc(Cn2c(C)nc3ncc(-c4c(C)noc4C)cc32)c1` [Example 4, 3,5-Dimethyl-4-(2-methyl-1-(3-(methylthio)benzyl)-1H-imidazo[4,5-b]pyridin-6-yl)isoxazole], the IC50 in test [1] is 0.3 to 3 µM; in test [2] it was 3 to 30 µM; in test [3], not above 0.3 µM.
`Cc1noc(C)c1-c1cnc2nc(C)n(Cc3ccc([S+](C)[O-])cc3)c2c1` (centres unmarked) [Example 5, 3,5-Dimethyl-4-(2-methyl-1-(4-(methylsulfinyl)benzyl)-1H-imidazo[4,5-b]pyridin-6-yl)isoxazole]: the IC50 in test [3] was not above 0.3 µM.
The same measure, in the same setting: the value for `Cc1noc(C)c1-c1cnc2nc(C)n(Cc3cccc(C(=O)O)c3)c2c1` [Example 6, 3-((6-(3,5-Dimethylisoxazol-4-yl)-2-methyl-1H-imidazo[4,5-b]pyridin-1-yl)methyl)benzoic acid] was 3 to 30 µM.
`Cc1noc(CO)c1-c1cnc2nc(C)n(Cc3ccccc3)c2c1` [Example 7, (4-(1-Benzyl-2-methyl-1H-imidazo[4,5-b]pyridin-6-yl)-3-methylisoxazol-5-yl)methanol]: the IC50 in test [1] was 0.3 to 3 µM; in test [3], not above 0.3 µM.
Regarding `Cc1nocc1-c1cnc2nc(C)n(Cc3ccccc3)c2c1` [Example 8, 4-(1-Benzyl-2-methyl-1H-imidazo[4,5-b]pyridin-6-yl)-3-methylisoxazole], the IC50 is 0.3 to 3 µM in test [1] and not above 0.3 µM in test [3].
As for `Cc1noc(C)c1-c1ccc2[nH]nc(CN3CCC(F)(F)CC3)c2c1` [Example 9, 4-(3-((4,4-Difluoropiperidin-1-yl)methyl)-1H-indazol-5-yl)-3,5-dimethylisoxazole], the IC50 in test [1] is 0.3 to 3 µM; in test [2] it was 0.3 to 3 µM; in test [3], not above 0.3 µM.
Regarding `Cc1noc(C)c1-c1ccc2[nH]nc(CN3CCCCC3)c2c1` [Example 10, 3,5-Dimethyl-4-[3-(1-piperidylmethyl)-1H-indazol-5-yl]isoxazole], the IC50 was 0.3 to 3 µM in test [1], 0.3 to 3 µM in test [2] and not above 0.3 µM in test [3].
As to `Cc1noc(C)c1-c1ccc2[nH]nc(CN3CCN(C)CC3)c2c1` [Example 11, 3,5-Dimethyl-4-[3-[(4-methylpiperazin-1-yl)methyl]-1H-indazol-5-yl]isoxazole], the IC50 in test [1] lay in the range of 3 to 30 µM; in test [2], 0.3 to 3 µM; in test [3] it was 0.3 to 3 µM.
As to `Cc1noc(C)c1-c1ccc2[nH]nc(CN3CCC(C#N)CC3)c2c1` [Example 12, 1-[[5-(3,5-Dimethylisoxazol-4-yl)-1H-indazol-3-yl]methyl]piperidine-4-carbonitrile], the IC50 in test [1] is 0.3 to 3 µM; in test [3], not above 0.3 µM.
For `COC1CCN(Cc2n[nH]c3ccc(-c4c(C)noc4C)cc23)CC1` [Example 13, 4-[3-[(4-Methoxy-1-piperidyl)methyl]-1H-indazol-5-yl]-3,5-dimethyl-isoxazole], the IC50 in test [1] and in test [3] was 0.3 to 3 µM each time.
Turning to `Cc1noc(C)c1-c1ccc2[nH]nc(CN3CCOCC3)c2c1` [Example 14, 4-[[5-(3,5-Dimethylisoxazol-4-yl)-1H-indazol-3-yl]methyl]morpholine], the IC50 is 3 to 30 µM in test [1] and 0.3 to 3 µM in test [3].
